The target of this assay is MAPK14 (human) (UniProt Q16539). Put plainly: Inhibition of LPS Stimulated TNF Production by U937 Cells. Particulars: for inhibition: concentration not given here.
MAPK14 (human), sequence (Q16539 whole entry, looked up): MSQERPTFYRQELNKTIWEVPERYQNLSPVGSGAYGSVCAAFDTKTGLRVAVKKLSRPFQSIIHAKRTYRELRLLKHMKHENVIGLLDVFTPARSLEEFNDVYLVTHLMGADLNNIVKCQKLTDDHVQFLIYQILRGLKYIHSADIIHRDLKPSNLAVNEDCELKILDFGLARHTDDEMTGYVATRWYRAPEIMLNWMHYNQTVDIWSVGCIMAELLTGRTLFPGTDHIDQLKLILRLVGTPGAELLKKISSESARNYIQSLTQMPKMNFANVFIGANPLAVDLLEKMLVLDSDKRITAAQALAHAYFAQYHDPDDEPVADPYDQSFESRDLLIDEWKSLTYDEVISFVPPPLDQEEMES

In general, inhibition refers to the drop in the measured response relative to a control, in per cent. A high value points to a strong effect. With `C[C@H](NC(=O)Nc1cccc(F)c1)c1[nH]nc(-c2ccc(F)cc2)c1-c1ccncc1`, the inhibition was 22%.

Compound `O=S(=O)(c1ccc(-c2ccon2)s1)N1CCC(c2[nH]nc(-c3ccc(F)cc3)c2-c2ccncc2)CC1` yielded an inhibition of 3%.

In turn, `C[C@@H](NC(=O)[C@@H]1CCCN1)c1[nH]nc(-c2ccc(F)cc2)c1-c1ccncc1` came in with an inhibition of 27%.

For orientation: IC50 means the midpoint of a concentration-inhibition curve. Read a high IC50 as weaker potency in that assay. As for `COc1ccc(S(=O)(=O)N[C@@H](Cc2ccccc2)c2[nH]nc(-c3ccc(F)cc3)c2-c2ccncc2)cc1OC`, the concentration for half-maximal inhibition (IC50) is < 1000 nM.

`C[C@H](NS(=O)(=O)/C=C/c1ccccc1)c1[nH]nc(-c2ccc(F)cc2)c1-c1ccncc1` returned a half-inhibitory concentration (IC50) of 590 nM.

Take `Cc1ccc(F)cc1S(=O)(=O)NCc1[nH]nc(-c2ccc(F)cc2)c1-c1ccncc1`: the inhibition was determined as 24%.

`O=C(N[C@H](Cc1ccccc1)c1[nH]nc(-c2ccc(F)cc2)c1-c1ccncc1)c1ccccc1C(F)(F)F`: the concentration for half-maximal inhibition (IC50) was > 1000 nM and the inhibition was 25%.

In turn, `Cc1[nH]nc(-c2ccc(F)cc2)c1-c1ccncc1` showed a half-maximal inhibitory concentration (IC50) of 222 nM.

`CCCCOc1ccc(C(=O)NCc2[nH]nc(-c3ccc(F)cc3)c2-c2ccncc2)cc1` had an inhibition of 66%.

Consider `Fc1cc(-c2c[nH]nc2-c2ccc(F)c(F)c2)ccn1`, for which the IC50 amounted to 517 nM.

With `C[C@@H](NS(=O)(=O)c1ccccc1)c1[nH]nc(-c2ccc(F)cc2)c1-c1ccncc1`, the inhibition was 54%.

The compound `CCN(CC)CCn1cc(-c2ccnc(F)c2)c(-c2ccc(F)cc2)n1` displayed an IC50 of 2300 nM.

In the case of `Fc1ccc(-c2nn(CCN3CCOCC3)cc2-c2ccncc2)cc1`, the IC50 came to 1830 nM.

Regarding `O=S(=O)(NCc1[nH]nc(-c2ccc(F)cc2)c1-c1ccncc1)c1cccc2ccccc12`, the concentration for half-maximal inhibition (IC50) was > 1000 nM.

On to `COc1ccc(CC(=O)N[C@H](Cc2ccccc2)c2[nH]nc(-c3ccc(F)cc3)c2-c2ccncc2)cc1OC`, for which the IC50 was > 1000 nM and the inhibition came out at 21%.

`C[C@@H](NC(=O)c1ccccc1I)c1[nH]nc(-c2ccc(F)cc2)c1-c1ccncc1` yielded a half-inhibitory concentration (IC50) of 660 nM.

For `Cc1cnccc1-c1c[nH]nc1-c1ccc(F)cc1`, the IC50 was 1210 nM.

In turn, `CN(C)CCn1cc(-c2ccnc(F)c2)c(-c2ccc(F)cc2)n1` yielded a concentration for half-maximal inhibition (IC50) of 4210 nM.

`C[C@@H](NC(=O)c1ccc(F)c(F)c1)c1[nH]nc(-c2ccc(F)cc2)c1-c1ccncc1` returned an inhibition of 52%.

`C[C@@H](NS(=O)(=O)c1ccc(Cl)c(Cl)c1)c1[nH]nc(-c2ccc(F)cc2)c1-c1ccncc1` had an inhibition of 98%.

Regarding `O=C(NCc1[nH]nc(-c2ccc(F)cc2)c1-c1ccncc1)c1ccc([N+](=O)[O-])o1`, the inhibition was found to be 100%.

For the compound `CCCCOc1ccc(S(=O)(=O)N[C@@H](C)c2[nH]nc(-c3ccc(F)cc3)c2-c2ccncc2)cc1`, the inhibition amounted to 80%.

The compound `C[C@@H](NC(=O)c1ccncc1)c1[nH]nc(-c2ccc(F)cc2)c1-c1ccncc1` yielded an inhibition of 36%.

Regarding `CNC(=O)N[C@H](C)c1[nH]nc(-c2ccc(F)cc2)c1-c1ccncc1`, the inhibition came to 50%.

Compound `O=C(NCCc1[nH]nc(-c2ccc(F)cc2)c1-c1ccncc1)c1cc(F)cc(F)c1` gave an inhibition of 29%.

`Cc1cc(C)c(C(=O)N[C@@H](C)c2[nH]nc(-c3ccc(F)cc3)c2-c2ccncc2)c(C)c1` registered an inhibition of 39%.

In turn, `C[C@@H](NS(=O)(=O)c1cccc2cnccc12)c1[nH]nc(-c2ccc(F)cc2)c1-c1ccncc1` yielded an inhibition of 74%.

`Cc1c(Cl)cccc1S(=O)(=O)NCCc1[nH]nc(-c2ccc(F)cc2)c1-c1ccncc1` had an inhibition of 29%.

`CCCCCCCCS(=O)(=O)NCc1[nH]nc(-c2ccc(F)cc2)c1-c1ccncc1` registered an inhibition of 12%.

In turn, `O=C(NCCc1[nH]nc(-c2ccc(F)cc2)c1-c1ccncc1)c1cccc(Cl)c1Cl` had an inhibition of 11%.

The compound `O=S(=O)(NCCc1[nH]nc(-c2ccc(F)cc2)c1-c1ccncc1)c1cccc(Cl)c1Cl` yielded an inhibition of 21%.

On to `C[C@@H](NC(=O)N[C@H](C)c1[nH]nc(-c2ccc(F)cc2)c1-c1ccncc1)c1ccccc1`, for which the inhibition came to 28%.

Consider `CCCOC(=O)NCc1[nH]nc(-c2ccc(F)cc2)c1-c1ccncc1`, for which the inhibition is 65%.

With `Cn1cc(-c2ccncc2)c(-c2ccc(C(F)(F)F)cc2)n1`, the IC50 was 1200 nM.

For `CC(C)c1cc(C(C)C)c(C(=O)N[C@@H](C)c2[nH]nc(-c3ccc(F)cc3)c2-c2ccncc2)c(C(C)C)c1`, the inhibition worked out at 42%.

In turn, `CCOC(=O)N[C@H](C)c1[nH]nc(-c2ccc(F)cc2)c1-c1ccncc1` gave an IC50 of 740 nM.

The compound `Cc1ccc(F)cc1S(=O)(=O)N[C@@H](C)c1[nH]nc(-c2ccc(F)cc2)c1-c1ccncc1` returned an inhibition of 72%.

As to `O=C(NCc1[nH]nc(-c2ccc(F)cc2)c1-c1ccncc1)c1cccc(Br)c1`, the inhibition was determined as 24%.

In turn, `O=C(NCc1[nH]nc(-c2ccc(F)cc2)c1-c1ccncc1)c1ccc(Cl)nc1` gave an inhibition of 15%.

Regarding `O=S(=O)(Cc1ccccc1)NCc1[nH]nc(-c2ccc(F)cc2)c1-c1ccncc1`, the 50% inhibitory concentration (IC50) was determined as 210 nM.

`O=S(=O)(NCCc1[nH]nc(-c2ccc(F)cc2)c1-c1ccncc1)c1ccc(Cl)cc1Cl` returned an inhibition of 31%.

Take `C[C@@H](NC(=O)c1ccccc1C(F)(F)F)c1[nH]nc(-c2ccc(F)cc2)c1-c1ccncc1`: the 50% inhibitory concentration (IC50) turned out to be 640 nM.

Turning to `Fc1ccc(-c2n[nH]cc2-c2ccnc(NC3CCN(Cc4ccccc4)CC3)c2)cc1`, the IC50 turned out to be 543 nM.

For the compound `C[C@@H](NS(=O)(=O)c1cccc2nonc12)c1[nH]nc(-c2ccc(F)cc2)c1-c1ccncc1`, the inhibition turned out to be 96%.

`Cn1nc(-c2ccc(F)cc2)c(-c2ccncc2)c1Br`: the IC50 worked out at 1400 nM.

`C[C@H](NC(=O)c1ccc(F)c(C(F)(F)F)c1)c1[nH]nc(-c2ccc(F)cc2)c1-c1ccncc1` registered an inhibition of 27%.

`C[C@@H](NS(=O)(=O)c1ccc(S(=O)(=O)c2ccccc2)s1)c1[nH]nc(-c2ccc(F)cc2)c1-c1ccncc1`: the inhibition came to 88%.

`COCC(=O)N[C@H](C)c1[nH]nc(-c2ccc(F)cc2)c1-c1ccncc1` displayed an inhibition of 46%.

For `C[C@@H](NS(=O)(=O)c1ccc(-c2ccccc2)cc1)c1[nH]nc(-c2ccc(F)cc2)c1-c1ccncc1`, the inhibition was 95%.

As for `Cc1c(C)c(S(=O)(=O)N[C@@H](C)c2[nH]nc(-c3ccc(F)cc3)c2-c2ccncc2)c(C)c2c1OC(C)(C)CC2`, the inhibition stood at 87%.

For `O=S(=O)(NCc1[nH]nc(-c2ccc(F)cc2)c1-c1ccncc1)c1ccc(F)cc1Cl`, the inhibition is 40%.

Regarding `C[C@@H](NS(=O)(=O)c1ccccc1Cl)c1[nH]nc(-c2ccc(F)cc2)c1-c1ccncc1`, the inhibition is 95%.

Consider `O=S(=O)(c1ccc(Cl)cc1)N1CCC(c2[nH]nc(-c3ccc(F)cc3)c2-c2ccncc2)CC1`, for which the inhibition stood at 25%.

Take `C[C@H](NS(=O)(=O)c1ccc(F)c(Cl)c1)c1[nH]nc(-c2ccc(F)cc2)c1-c1ccncc1`: the inhibition stood at 85%.

Regarding `C=CCNC(=O)N[C@H](C)c1[nH]nc(-c2ccc(F)cc2)c1-c1ccncc1`, the inhibition stood at 48%.

As to `C[C@H](NS(=O)(=O)c1ccc(Br)cc1)c1[nH]nc(-c2ccc(F)cc2)c1-c1ccncc1`, the inhibition amounted to 87%.

Take `C[C@H](NS(=O)(=O)c1cccc2cnccc12)c1[nH]nc(-c2ccc(F)cc2)c1-c1ccncc1`: the inhibition was 75%.

With `CC(C)NC(=O)N[C@H](C)c1[nH]nc(-c2ccc(F)cc2)c1-c1ccncc1`, the inhibition stood at 52%.

Take `COc1ccccc1C(=O)N[C@H](Cc1ccccc1)c1[nH]nc(-c2ccc(F)cc2)c1-c1ccncc1`: the IC50 is > 1000 nM and the inhibition is 2%.

In turn, `CC(=O)OC(C)(C)C(=O)N[C@@H](C)c1[nH]nc(-c2ccc(F)cc2)c1-c1ccncc1` came in with an IC50 of 870 nM.

Consider `O=S(=O)(NCc1[nH]nc(-c2ccc(F)cc2)c1-c1ccncc1)c1ccc(Cl)cc1`, for which the inhibition was 37%.

The compound `C[C@@H](NC(=O)c1ccc(Cl)cc1)c1[nH]nc(-c2ccc(F)cc2)c1-c1ccncc1` returned an inhibition of 36%.

In turn, `C[C@H](NS(=O)(=O)c1ccccc1Cl)c1[nH]nc(-c2ccc(F)cc2)c1-c1ccncc1` registered an inhibition of 94%.

In turn, `C[C@@H](NC(=O)c1cccnc1)c1[nH]nc(-c2ccc(F)cc2)c1-c1ccncc1` came in with an inhibition of 36%.

As to `C[C@H](NC(=O)Cc1cccs1)c1[nH]nc(-c2ccc(F)cc2)c1-c1ccncc1`, the inhibition was 28%.

The compound `O=C(NCc1[nH]nc(-c2ccc(F)cc2)c1-c1ccncc1)C1CCCC1` had an inhibition of 13%.

`C[C@H](NS(=O)(=O)c1ccccc1C(F)(F)F)c1[nH]nc(-c2ccc(F)cc2)c1-c1ccncc1`: the inhibition is 55%.

With `O=C(NCCc1[nH]nc(-c2ccc(F)cc2)c1-c1ccncc1)c1cccc(C(F)(F)F)c1F`, the IC50 is > 1000 nM.

For `C[C@H](NS(=O)(=O)c1cccc(Cl)c1Cl)c1[nH]nc(-c2ccc(F)cc2)c1-c1ccncc1`, the inhibition amounted to 78%.

As for `C[C@@H](NS(=O)(=O)c1cccc2cccnc12)c1[nH]nc(-c2ccc(F)cc2)c1-c1ccncc1`, the inhibition is 71%.

For the compound `C[C@@H](NS(=O)(=O)c1cc(Cl)c(Cl)s1)c1[nH]nc(-c2ccc(F)cc2)c1-c1ccncc1`, the inhibition worked out at 75%.

`CCOC(=O)c1ccc(NC(=O)NCc2[nH]nc(-c3ccc(F)cc3)c2-c2ccncc2)cc1`: the inhibition was 13%.

Consider `Cc1noc(C)c1C(=O)N[C@@H](C)c1[nH]nc(-c2ccc(F)cc2)c1-c1ccncc1`, for which the inhibition turned out to be 32%.

Regarding `C[C@H](NC(=O)c1cc(Cl)cc(Cl)c1)c1[nH]nc(-c2ccc(F)cc2)c1-c1ccncc1`, the inhibition turned out to be 3%.

On to `O=C(NCc1[nH]nc(-c2ccc(F)cc2)c1-c1ccncc1)Nc1ccccc1-c1ccccc1`, for which the inhibition came to 2%.

As for `O=C(NCc1[nH]nc(-c2ccc(F)cc2)c1-c1ccncc1)[C@H]1CCCN1`, the IC50 was > 1000 nM.

With `C[C@@H](NS(=O)(=O)Cc1ccccc1[N+](=O)[O-])c1[nH]nc(-c2ccc(F)cc2)c1-c1ccncc1`, the inhibition came out at 91%.

In the case of `COc1ccc(OC)c(S(=O)(=O)N[C@@H](C)c2[nH]nc(-c3ccc(F)cc3)c2-c2ccncc2)c1`, the inhibition is 40%.

`CCCCOc1ccc(S(=O)(=O)NCCc2[nH]nc(-c3ccc(F)cc3)c2-c2ccncc2)cc1` displayed an inhibition of 29%.

For the origin of these results see the Kinase Knowledgebase extract (Sharma et al. 2016).
